According to the supplement of paper PMC4862054:

What was measured:
Assay in all cases: normalised viability (% of control), CellTiter-Blue; higher = more viable cells (about 100 = DMSO control)
Settings in all cases: incubation time: 72 h
HDQ-P1 [1] = system: HDQ-P1
Protocol: (§1)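 DSRT, CellTiter-Blue viability, 72 h incubation. Signal is normalised to DMSO and benzethonium chloride controls. Value is the normalised response at dose 8.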

CAL-51 [2] = system: CAL-51
Protocol: as §1

MDA-MB-453 [3] = system: MDA-MB-453
Protocol: as §1

CAL-85-1 [4] = system: CAL-85-1
Protocol: as §1

DU-4475 [5] = system: DU-4475
Protocol: as §1

CAL-148 [6] = system: CAL-148
Protocol: as §1

HDQ-P1 [7] = system: HDQ-P1; remark: listed apart in the source
Protocol: (§2)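 DSRT, CellTiter-Blue viability, 72 h incubation. Signal is normalised to DMSO and benzethonium chloride controls. Value is the normalised response at dose 7.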

CAL-51 [8] = system: CAL-51; remark: listed apart in the source
Protocol: as §2

MDA-MB-453 [9] = system: MDA-MB-453; remark: listed apart in the source
Protocol: as §2

CAL-85-1 [10] = system: CAL-85-1; remark: listed apart in the source
Protocol: as §2

DU-4475 [11] = system: DU-4475; remark: listed apart in the source
Protocol: as §2

CAL-148 [12] = system: CAL-148; remark: listed apart in the source
Protocol: as §2

Structure (SMILES)	normalised viability (HDQ-P1 [1])	normalised viability (CAL-51 [2])	normalised viability (MDA-MB-453 [3])	normalised viability (CAL-85-1 [4])	normalised viability (DU-4475 [5])	normalised viability (CAL-148 [6])	normalised viability (HDQ-P1 [7])	normalised viability (CAL-51 [8])	normalised viability (MDA-MB-453 [9])	normalised viability (CAL-85-1 [10])	normalised viability (DU-4475 [11])	normalised viability (CAL-148 [12])
Cc1ccc(C(=O)N(CCCN)[C@@H](c2oc3cc(Cl)ccc3c(=O)c2Cc2ccccc2)C(C)C)cc1 (300 nM)	62.6%	26.7%	24.8%	32.4%	31.2%	16.8%	–	–	–	–	–	–
NC(=O)Nc1cc(-c2cccc(F)c2)sc1C(=O)N[C@H]1CCCNC1 [AZD 7762] (100 nM)	–	–	–	–	–	–	96.5%	101%	88.5%	89.1%	97.4%	102%
NC(=O)Nc1cc(-c2cccc(F)c2)sc1C(=O)N[C@H]1CCCNC1 [AZD 7762] (300 nM)	76.6%	94.1%	46.8%	45.4%	118%	96.1%	–	–	–	–	–	–
CO[C@H]1/C=C\C=C(/C)C(=O)NC2=CC(=O)C(NCCN(C)C)=C(C[C@@H](C)C[C@H](OC)[C@H](O)[C@@H](C)/C=C(\C)[C@@H]1OC(N)=O)C2=O [Alvespimycin] (300 nM)	33.1%	18.2%	8.24%	24.4%	1.07%	14.8%	–	–	–	–	–	–
CCC1(c2ccc(N)cc2)CCC(=O)NC1=O (stereo not given) [Aminoglutethimide] (3000 nM)	92.5%	85.1%	82.6%	90.1%	103%	105%	–	–	–	–	–	–
NCC(=O)CCC(=O)O [Aminolevulinic acid] (1000 nM)	–	–	–	–	–	–	95.2%	106%	90.5%	97.4%	95.6%	95%
NCC(=O)CCC(=O)O [Aminolevulinic acid] (3000 nM)	103%	109%	122%	88.7%	110%	96.7%	–	–	–	–	–	–
CCN(CCCOc1ccc2c(Nc3cc(CC(=O)Nc4cccc(F)c4)[nH]n3)ncnc2c1)CCOP(=O)(O)O [Barasertib] (100 nM)	–	–	–	–	–	–	76.5%	60.6%	55.3%	77.2%	77%	23.7%
CCN(CCCOc1ccc2c(Nc3cc(CC(=O)Nc4cccc(F)c4)[nH]n3)ncnc2c1)CCOP(=O)(O)O [Barasertib] (300 nM)	64.3%	54%	61%	73.1%	63.8%	22.6%	–	–	–	–	–	–
Cn1c(CCCC(=O)O)nc2cc(N(CCCl)CCCl)ccc21 [Bendamustine] (3000 nM)	101%	112%	113%	93.8%	105%	101%	–	–	–	–	–	–
C=C(c1ccc(C(=O)O)cc1)c1cc2c(cc1C)C(C)(C)CCC2(C)C [Bexarotene] (3000 nM)	77.3%	92.8%	84.2%	99.2%	97%	79.8%	–	–	–	–	–	–
CC(=O)Nc1ccc(C(=O)Nc2ccccc2N)cc1 [CI-994] (100 nM)	–	–	–	–	–	–	119%	98.1%	92%	89.5%	98.7%	91.2%
CC(=O)Nc1ccc(C(=O)Nc2ccccc2N)cc1 [CI-994] (300 nM)	130%	99.5%	96.1%	110%	90.5%	100%	–	–	–	–	–	–
COc1cc2nccc(Oc3ccc(NC(=O)C4(C(=O)Nc5ccc(F)cc5)CC4)cc3)c2cc1OC [Cabozantinib] (300 nM)	72.6%	104%	112%	86.3%	103%	94.7%	–	–	–	–	–	–
N.N.[Cl][Pt][Cl] [Cisplatin] (3000 nM)	104%	106%	100%	99.1%	96.8%	101%	–	–	–	–	–	–
C[C@@H](Oc1cc(-c2cnn(C3CCNCC3)c2)cnc1N)c1c(Cl)ccc(F)c1Cl [Crizotinib] (3000 nM)	86.7%	62.9%	57.3%	66.1%	78.7%	76.8%	–	–	–	–	–	–
CN(C)/N=N/c1[nH]cnc1C(N)=O [Dacarbazine] (3000 nM)	95.5%	97.2%	95.7%	87.3%	101%	94.8%	–	–	–	–	–	–
Cc1ccc(-n2nc(C(C)(C)C)cc2NC(=O)Nc2ccc(OCCN3CCOCC3)c3ccccc23)cc1 [Doramapimod] (3000 nM)	75.8%	102%	96.8%	76%	114%	93.1%	–	–	–	–	–	–
C#Cc1cccc(Nc2ncnc3cc(OCCOC)c(OCCOC)cc23)c1 [Erlotinib] (3000 nM)	75.4%	95.9%	73.5%	49.8%	108%	66.9%	–	–	–	–	–	–
COc1cc([C@@H]2c3cc4c(cc3[C@@H](O[C@@H]3O[C@@H]5CO[C@@H](C)O[C@H]5[C@H](O)[C@H]3O)[C@H]3COC(=O)[C@H]23)OCO4)cc(OC)c1O [Etoposide] (3000 nM)	78.7%	26.4%	89%	76.9%	3.63%	41.3%	–	–	–	–	–	–
